According to patent US20160326135A1, “2-HETARYL-PYRIDAZINONE DERIVATIVES AND THEIR USE AS HERBICIDES” (BAYER CROPSCIENCE AKTIENGESELLSCHAFT, priority 2013, published 2016):

How the values were obtained:
Format in all cases: in vivo
Matricaria inodora [1] = test: Post-emergence herbicidal action against harmful plants; conditions: application rate 80 g/ha, scored visually after about 3 weeks, 100% = plants have died, 0% = like control plants
Method: (§1) Seeds of monocotyledonous and dicotyledonous weed and crop plants are laid out in sandy loam in wood-fiber pots, covered with soil and cultivated in a greenhouse under good growth conditions. 2 to 3 weeks after sowing, the trial plants are treated at the one-leaf stage. The compounds of the invention, formulated in the form of wettable powders (WP) or as emulsion concentrates (EC), are then sprayed onto the green parts of the plants in the form of an aqueous suspension or emulsion at a water application rate equating to 600 to 800 I/ha, with addition of 0.2% wetting agent. After the trial plants have been left to stand in a greenhouse under optimal growth conditions for about 3 weeks, the efficacy of the formulations is scored visually in comparison to untreated controls (herbicidal action in percent (%): 100% efficacy=the plants have died, 0% efficacy=like control plants). In this trial, for example, compound no.

Ipomoea purpurea = test: as above; conditions: application rate 80 g/ha, scored visually after about 3 weeks, 100% = plants have died, 0% = like control plants
Method: as §1

Stellaria media [2] = test: as above; conditions: application rate 80 g/ha, scored visually after about 3 weeks, 100% = plants have died, 0% = like control plants
Method: as §1

Amaranthus retroflexus [3] = test: as above; conditions: application rate 80 g/ha, scored visually after about 3 weeks, 100% = plants have died, 0% = like control plants
Method: as §1

Echinochloa crus galli [4] = test: as above; conditions: application rate 80 g/ha, scored visually after about 3 weeks, 100% = plants have died, 0% = like control plants
Method: as §1

Setaria viridis [5] = test: as above; conditions: application rate 80 g/ha, scored visually after about 3 weeks, 100% = plants have died, 0% = like control plants
Method: as §1

Viola tricolor [6] = test: as above; conditions: application rate 80 g/ha, scored visually after about 3 weeks, 100% = plants have died, 0% = like control plants
Method: as §1

Veronica persica [7] = test: as above; conditions: application rate 80 g/ha, scored visually after about 3 weeks, 100% = plants have died, 0% = like control plants
Method: as §1

Abutilon theophrasti = test: Pre-emergence herbicidal action against harmful plants; conditions: application rate 320 g/ha, scored visually after 3 weeks, 100% = plants have died, 0% = like control plants
Source text: (§2) Seeds of monocotyledonous and dicotyledonous weed plants and crop plants are laid out in wood-fiber pots in sandy loam and covered with soil. The compounds of the invention, formulated in the form of wettable powders (WP) or as emulsion concentrates (EC), are then applied to the surface of the covering soil in the form of an aqueous suspension or emulsion at a water application rate equating to 600 to 800 I/ha, with addition of 0.2% wetting agent. After the treatment, the pots are placed in a greenhouse and kept under good growth conditions for the trial plants. The damage to the trial plants is scored visually after a trial duration of 3 weeks by comparison with untreated controls (herbicidal activity in percent (%): 100% efficacy=the plants have died, 0% efficacy=like control plants). In this trial, for example, compound no.

Matricaria inodora [8] = test: as above; conditions: application rate 320 g/ha, scored visually after 3 weeks, 100% = plants have died, 0% = like control plants
Source text: as §2

Stellaria media [9] = test: as above; conditions: application rate 320 g/ha, scored visually after 3 weeks, 100% = plants have died, 0% = like control plants
Source text: as §2

Amaranthus retroflexus [10] = test: as above; conditions: application rate 320 g/ha, scored visually after 3 weeks, 100% = plants have died, 0% = like control plants
Source text: as §2

Echinochloa crus galli [11] = test: as above; conditions: application rate 320 g/ha, scored visually after 3 weeks, 100% = plants have died, 0% = like control plants
Source text: as §2

Setaria viridis [12] = test: as above; conditions: application rate 320 g/ha, scored visually after 3 weeks, 100% = plants have died, 0% = like control plants
Source text: as §2

Viola tricolor [13] = test: as above; conditions: application rate 320 g/ha, scored visually after 3 weeks, 100% = plants have died, 0% = like control plants
Source text: as §2

Veronica persica [14] = test: as above; conditions: application rate 320 g/ha, scored visually after 3 weeks, 100% = plants have died, 0% = like control plants
Source text: as §2

Cc1cnn(-c2ccc(C(F)(F)F)c(=O)n2C)c(=O)c1O [1-3, 4-hydroxy-5-methyl-2-(1-methyl-3-(trifluoromethyl)pyrid-2-on-6-yl)-pyridazin-3-one]
at least 80%: herbicidal action in percent (efficacy) (Matricaria inodora [1]) | herbicidal action in percent (efficacy) (Ipomoea purpurea) | herbicidal action in percent (efficacy) (Stellaria media [2]) | herbicidal action in percent (efficacy) (Amaranthus retroflexus [3]) | herbicidal action in percent (efficacy) (Echinochloa crus galli [4]) | herbicidal action in percent (efficacy) (Setaria viridis [5]) | herbicidal action in percent (efficacy) (Viola tricolor [6]) | herbicidal action in percent (efficacy) (Veronica persica [7]) | herbicidal activity in percent (efficacy) (Abutilon theophrasti) | herbicidal activity in percent (efficacy) (Matricaria inodora [8]) | herbicidal activity in percent (efficacy) (Stellaria media [9]) | herbicidal activity in percent (efficacy) (Amaranthus retroflexus [10]) | herbicidal activity in percent (efficacy) (Echinochloa crus galli [11]) | herbicidal activity in percent (efficacy) (Setaria viridis [12]) | herbicidal activity in percent (efficacy) (Viola tricolor [13]) | herbicidal activity in percent (efficacy) (Veronica persica [14])
